The source made the active and inactive calls. The rule behind the calls is not given here.
Legend:
Cholinesterase [1] = target: T1, Cholinesterase (Homo sapiens, UniProt P06276); experiment: Inhibition of human BChE using butyrylthiocholine iodide as substrate incubated for 20 mins followed by substrate addition by Ellman's method
[2] = target: Acetylcholinesterase (Homo sapiens) (UniProt P22303); experiment: Inhibition of human AChE using acetylthiocholine iodide as substrate at 10 uM incubated for 20 mins followed by substrate addition by Ellman's method relative to control
[3] = Metal chelating activity assessed as compound-Cu2+ complex formation at ratio of 10:1 incubated for 2 mins followed by pyrocatechol violet addition and further incubated for 10 mins in dark by absorbance based assay; conditions: time 12.0 min
[4] = Neurotoxicity in mouse HT-22 cells assessed as reduction in cell viability at 25 uM incubated for 24 hrs by MTT assay; assay type: cell-based; conditions: ht-22, 24 h
HT-22 [5] = experiment: Neuroprotective activity against glutamate induced-oxidative stress in mouse HT-22 cells assessed as cell viability at 5 uM incubated for 24 hrs by MTT assay; assay type: functional, cell-based
N9 [6] = experiment: Immunomodulatory activity in mouse N9 microglial cells assessed as reduction in LPS-induced IL-1beta release at 0.5 to 5 uM incubated for 24 hrs by Western blot analysis; assay type: functional, cell-based; conditions: dose 0.5-5 µM
N9 [7] = experiment: Immunomodulatory activity in mouse N9 microglial cells assessed as increase in LPS-induced TREM2 expression at 2.5 to 5 uM incubated for 24 hrs by Western blot analysis; assay type: functional, cell-based; conditions: dose 2.5-5 µM
[8] = Toxicity in Swiss mouse assessed as change in weight gain at 0.1 to 3 mg/kg, ip administered for 7 days; assay type: organism-based; conditions: in vivo, 168 h, dose 0.1-3 mg/kg, time 7 day
[9] = Toxicity in Swiss mouse assessed as change in normal behaviour at 0.1 to 3 mg/kg, ip administered for 7 days; assay type: organism-based; conditions: in vivo, 168 h, dose 0.1-3 mg/kg, time 7 day
Mus musculus [10] = experiment: Anti-alzheimer activity against amyloid beta 25-35 induced learning impairments in Swiss mouse assessed as increase in spontaneous alteration performance by measuring total number of arm entries at 0.3 to 1 mg/kg, ip administered once daily for 7 days and measured on day 8 by Y-maze test; assay type: functional, organism-based; conditions: dose 0.3-1 mg/kg, time 7.0 day
Mus musculus [11] = experiment: Anti-alzheimer activity against amyloid beta 25-35 induced learning impairments in Swiss mouse assessed as latency to enter dark compartment at 0.1 mg/kg, ip administered once daily for 7 days and measured on day 8 by passive avoidance test; assay type: functional, organism-based; conditions: time 7.0 day
Mus musculus [12] = experiment: Anti-alzheimer activity against amyloid beta 25-35 induced learning impairments in wild type 129 SV mouse assessed as increase in spontaneous alternation performance by measuring total number of arm entries at 0.3 mg/kg, ip administered once daily for 7 days and measured on day 8 by Y-maze test; assay type: functional, organism-based; conditions: time 7.0 day
Mus musculus [13] = experiment: Anti-alzheimer activity against amyloid beta 25-35 induced learning impairments in wild type 129 SV mouse assessed as increase in latency to enter dark compartment at 0.3 mg/kg, ip administered once daily for 7 days and measured on day 9 by passive avoidance test; assay type: functional, organism-based; conditions: time 7.0 day
Mus musculus [14] = experiment: Anti-alzheimer activity against amyloid beta 25-35 induced learning impairments in BChE KO mouse assessed as memory deficit in alternation performance by measuring total number of arm entries at 0.3 mg/kg, ip qd administered for 7 days and measured on day 8 by Y-maze test; assay type: functional, organism-based; conditions: time 7.0 day
Mus musculus [15] = experiment: Anti-alzheimer activity against amyloid beta 25-35 induced learning impairments in BChE KO mouse assessed as increase in latency to enter dark compartment at 0.3 mg/kg, ip administered once daily for 7 days and measured on day 9 by passive avoidance test; assay type: functional, organism-based; conditions: time 7.0 day
[16] = Metal chelating activity assessed as Fe2+ -ferrozoine complex formation at ratio of 10:1 incubated for 2 mins followed by ferrozine addition and further incubated for 10 mins by absorbance based assay; conditions: time 12.0 min
N9 [17] = experiment: Immunomodulatory activity in mouse N9 microglial cells assessed as reduction in LPS-induced iNOS expression at 0.1 to 5 uM incubated for 24 hrs by Western blot analysis; assay type: functional, cell-based; conditions: dose 0.1-5 µM
N9 [18] = experiment: Immunomodulatory activity in mouse N9 microglial cells assessed as reduction in LPS-induced nitrite accumulation at 0.1 to 5 uM incubated for 24 hrs by Griess reagent based colorimetry assay; assay type: functional, cell-based; conditions: dose 0.1-5 µM
Cholinesterase [19] = target: T1, Cholinesterase
Description: Binding affinity to human serum BChE assessed as half life

HT-22 [20] = experiment: Neuroprotective activity against glutamate induced-oxidative stress in mouse HT-22 cells assessed as cell viability at 1 to 25 uM incubated for 24 hrs by MTT assay; assay type: functional, cell-based; conditions: dose 1-25 µM
N9 [21] = experiment: Immunomodulatory activity in mouse N9 microglial cells assessed as reduction in LPS-induced nitrite accumulation at 2.5 to 5 uM incubated for 24 hrs by Griess reagent based colorimetry assay; assay type: functional, cell-based; conditions: dose 2.5-5 µM
N9 [22] = experiment: Immunomodulatory activity in mouse N9 microglial cells assessed as reduction in LPS-induced IL-1beta release at 2.5 to 5 uM incubated for 24 hrs by Western blot analysis; assay type: functional, cell-based; conditions: dose 2.5-5 µM
N9 [23] = experiment: Immunomodulatory activity in mouse N9 microglial cells assessed as reduction in LPS-induced iNOS expression at 2.5 to 5 uM incubated for 24 hrs by Western blot analysis; assay type: functional, cell-based; conditions: dose 2.5-5 µM
HT-22 [24] = experiment: Neuroprotective activity against glutamate induced-oxidative stress in mouse HT-22 cells assessed as cell viability at 10 uM incubated for 24 hrs by MTT assay; assay type: functional, cell-based
N9 [25] = experiment: Immunomodulatory activity in mouse N9 microglial cells assessed as reduction in LPS-induced IL-1beta release at 0.1 to 5 uM incubated for 24 hrs by Western blot analysis; assay type: functional, cell-based; conditions: dose 0.1-5 µM
Mus musculus [26] = experiment: Anti-alzheimer activity against amyloid beta 25-35 induced learning impairments in Swiss mouse assessed as increase in spontaneous alteration performance by measuring total number of arm entries at 1 mg/kg, ip administered once daily for 7 days and measured on day 8 by Y-maze test; assay type: functional, organism-based; conditions: time 7.0 day
Mus musculus [27] = experiment: Anti-alzheimer activity against amyloid beta 25-35 induced learning impairments in Swiss mouse assessed as latency to enter dark compartment at 0.3 mg/kg, ip administered once daily for 7 days and measured on day 8 by passive avoidance test; assay type: functional, organism-based; conditions: time 7.0 day

T1 sequence (P06276 whole entry): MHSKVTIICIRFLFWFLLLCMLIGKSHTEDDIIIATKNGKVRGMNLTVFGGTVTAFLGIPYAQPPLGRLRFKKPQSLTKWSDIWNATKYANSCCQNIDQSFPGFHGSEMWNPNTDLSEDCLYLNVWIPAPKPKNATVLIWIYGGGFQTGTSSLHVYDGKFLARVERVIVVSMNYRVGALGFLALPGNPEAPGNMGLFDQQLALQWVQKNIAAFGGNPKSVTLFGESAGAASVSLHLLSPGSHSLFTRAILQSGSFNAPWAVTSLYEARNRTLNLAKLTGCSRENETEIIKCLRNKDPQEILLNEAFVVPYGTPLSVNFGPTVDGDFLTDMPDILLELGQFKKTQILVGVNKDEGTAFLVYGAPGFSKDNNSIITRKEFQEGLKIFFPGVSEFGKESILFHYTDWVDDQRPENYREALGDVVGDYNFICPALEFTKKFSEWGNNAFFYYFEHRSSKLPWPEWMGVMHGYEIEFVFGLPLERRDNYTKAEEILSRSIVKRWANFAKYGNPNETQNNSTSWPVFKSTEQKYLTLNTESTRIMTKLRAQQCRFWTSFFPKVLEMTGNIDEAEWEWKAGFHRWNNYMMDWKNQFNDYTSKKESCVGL
Sequence of Acetylcholinesterase (Homo sapiens) (P22303 whole entry): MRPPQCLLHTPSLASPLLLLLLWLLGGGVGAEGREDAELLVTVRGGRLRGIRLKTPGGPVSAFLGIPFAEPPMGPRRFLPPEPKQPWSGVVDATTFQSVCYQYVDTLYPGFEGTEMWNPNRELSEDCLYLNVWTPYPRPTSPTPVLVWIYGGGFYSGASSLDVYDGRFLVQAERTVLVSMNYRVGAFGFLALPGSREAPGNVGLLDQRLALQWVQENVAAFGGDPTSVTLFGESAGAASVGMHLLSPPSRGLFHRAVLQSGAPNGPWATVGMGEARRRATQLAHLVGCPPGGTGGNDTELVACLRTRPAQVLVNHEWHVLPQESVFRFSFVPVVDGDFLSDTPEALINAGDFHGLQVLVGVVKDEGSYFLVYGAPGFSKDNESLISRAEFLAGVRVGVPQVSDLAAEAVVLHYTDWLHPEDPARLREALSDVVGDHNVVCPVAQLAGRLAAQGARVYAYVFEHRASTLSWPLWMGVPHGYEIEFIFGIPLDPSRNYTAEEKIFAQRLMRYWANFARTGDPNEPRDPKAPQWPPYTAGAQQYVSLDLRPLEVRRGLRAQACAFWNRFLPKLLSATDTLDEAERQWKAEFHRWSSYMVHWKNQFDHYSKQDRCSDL

COc1ccc2[nH]cc(CCNC(=O)CCNC(=O)Oc3ccc4c(c3)CN3CCc5ccccc5C3N4C)c2c1 (stereo not given)
IC50 (Cholinesterase [1]; read-out: IC50): 482 nM
inhibition [2]: 2.3%

COc1ccc2[nH]cc(CCNC(=O)CCCCCCNC(=O)Oc3ccc4c(c3)CN3CCc5ccccc5C3N4C)c2c1 (stereo not given)
IC50 (Cholinesterase [1]; read-out: IC50): 102 nM
IC50 (Cholinesterase [1]; read-out: pIC50 (converted)): 204 nM
inhibition [2]: 6.5%
Activity [3]: inactive
Activity [4]: Non-Toxic
Activity (HT-22 [5]): Active
Activity (N9 [6]): Active
Activity (N9 [7]): Active
Activity [8]: Non-Toxic
Activity [9]: Non-Toxic
Activity (Mus musculus [10]): Active
Activity (Mus musculus [11]): Active
Activity (Mus musculus [12]): Active
Activity (Mus musculus [13]): Active
Activity (Mus musculus [14]): inactive
Activity (Mus musculus [15]): inactive
Activity [16]: inactive
Activity (N9 [17]): Active
Activity (N9 [18]): Active
T1/2 (Cholinesterase [19]): 3 h

Cc1c(C)c2c(c(C)c1O)CCC(C)(C(=O)NCCCCNC(=O)Oc1ccc3c(c1)CN1CCc4ccccc4C1N3C)O2 (stereo not given)
IC50 (Cholinesterase [1]; read-out: IC50): 791 nM
inhibition [2]: 15.2%

CN1c2ccc(OC(=O)NCCCCNC(=O)/C=C/c3ccccc3)cc2CN2CCc3ccccc3C21 (stereo not given)
IC50 (Cholinesterase [1]; read-out: IC50): 221 nM
inhibition [2]: 6.1%

COc1cc(/C=C/C(=O)O)ccc1O [FERULATE]
Activity [3]: inactive
Activity [4]: Non-Toxic
Activity (HT-22 [20]): inactive
Activity (N9 [21]): inactive
Activity (N9 [22]): inactive
Activity (N9 [23]): inactive
Activity [16]: inactive

COc1cc(/C=C/C(=O)NCCCCNC(=O)Oc2ccc3c(c2)CN2CCc4ccccc4C2N3C)ccc1O (stereo not given)
IC50 (Cholinesterase [1]; read-out: IC50): 155 nM
IC50 (Cholinesterase [1]; read-out: pIC50 (converted)): 115 nM
inhibition [2]: 7.7%
Activity [3]: inactive
Activity [4]: Non-Toxic
Activity (HT-22 [24]): Active
Activity (N9 [25]): Active
Activity (N9 [7]): Active
Activity [8]: Non-Toxic
Activity [9]: Non-Toxic
Activity (Mus musculus [26]): Active
Activity (Mus musculus [27]): Active
Activity [16]: inactive
Activity (N9 [17]): Active
Activity (N9 [18]): Active
T1/2 (Cholinesterase [19]): 2.4 h

Cc1c(C)c2c(c(C)c1O)CCC(C)(C(=O)NCCCCCCNC(=O)Oc1ccc3c(c1)CN1CCc4ccccc4C1N3C)O2 (stereo not given)
IC50 (Cholinesterase [1]; read-out: IC50): 255 nM
IC50 (Cholinesterase [1]; read-out: pIC50 (converted)): 9330 nM
inhibition [2]: 24.1%

COc1cc(/C=C/C(=O)NCCCCCCNC(=O)Oc2ccc3c(c2)CN2CCc4ccccc4C2N3C)ccc1O (stereo not given)
IC50 (Cholinesterase [1]; read-out: IC50): 166 nM
inhibition [2]: 20%

COc1ccc2[nH]cc(CCNC(=O)CCCCNC(=O)Oc3ccc4c(c3)CN3CCc5ccccc5C3N4C)c2c1 (stereo not given)
IC50 (Cholinesterase [1]; read-out: IC50): 127 nM
inhibition [2]: 15%

COc1ccc2[nH]cc(CCNC(C)=O)c2c1 [MELATONIN]
Activity [3]: inactive
Activity [4]: Non-Toxic
Activity (HT-22 [20]): inactive
Activity (N9 [21]): inactive
Activity (N9 [22]): inactive
Activity (N9 [23]): inactive
Activity [16]: inactive

CN1c2ccc(OC(=O)NCCCCCCNC(=O)/C=C/c3ccccc3)cc2CN2CCc3ccccc3C21 (stereo not given)
IC50 (Cholinesterase [1]; read-out: IC50): 442 nM
inhibition [2]: 37.5%

Source: ChEMBL document CHEMBL5032507, “Selective Pseudo-irreversible Butyrylcholinesterase Inhibitors Transferring Antioxidant Moieties to the Enzyme Show Pronounced Neuroprotective Efficacy In Vitro and In Vivo in an Alzheimer's Disease Mouse Model” (J Med Chem, 2021)
